Results on five compounds are retold here after ChEMBL document CHEMBL1134734, “Introduction of alkynyl chains on C-8 of adenosine led to very selective antagonists of the A(3) adenosine receptor” (Bioorg Med Chem Lett, 2001).

In assay [1] the target is T1, Adenosine receptor A3 (Homo sapiens) (UniProt P0DMS8).
T1 sequence (whole entry): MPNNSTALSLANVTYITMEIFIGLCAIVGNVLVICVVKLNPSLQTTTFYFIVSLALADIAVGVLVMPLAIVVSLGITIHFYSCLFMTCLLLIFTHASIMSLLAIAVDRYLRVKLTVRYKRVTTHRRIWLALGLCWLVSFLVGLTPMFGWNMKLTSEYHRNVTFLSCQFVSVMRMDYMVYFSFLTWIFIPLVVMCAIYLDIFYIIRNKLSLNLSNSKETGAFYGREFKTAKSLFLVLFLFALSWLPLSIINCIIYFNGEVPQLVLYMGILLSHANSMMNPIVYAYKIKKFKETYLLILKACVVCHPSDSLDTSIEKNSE
The assay can be described thus: Stimulation of [35S]GTP gamma-S binding in CHO cell membranes expressing human A3 receptor at 78.8 uM. The class given is functional.

Assay [2] deals with T2, Adenosine receptor A2b (Homo sapiens, UniProt P29275).
T2 sequence (P29275 whole entry): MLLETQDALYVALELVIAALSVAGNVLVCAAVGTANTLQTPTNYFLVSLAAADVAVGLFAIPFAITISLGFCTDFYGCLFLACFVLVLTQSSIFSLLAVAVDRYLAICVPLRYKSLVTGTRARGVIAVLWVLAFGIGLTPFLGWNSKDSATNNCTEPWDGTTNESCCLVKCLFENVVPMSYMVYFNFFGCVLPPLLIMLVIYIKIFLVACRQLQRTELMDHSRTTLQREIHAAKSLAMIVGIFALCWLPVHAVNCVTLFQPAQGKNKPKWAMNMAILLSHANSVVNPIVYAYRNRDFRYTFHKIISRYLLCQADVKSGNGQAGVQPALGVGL
The assay can be described thus: Receptor stimulated adenylyl cyclase activity in CHO cells expressing human recombinant Adenosine A2B receptor. The class given is functional, cell-based.

The next assay concerns the target T3, Adenosine receptor A1 (Homo sapiens, UniProt P30542).
T3 sequence (P30542 whole entry): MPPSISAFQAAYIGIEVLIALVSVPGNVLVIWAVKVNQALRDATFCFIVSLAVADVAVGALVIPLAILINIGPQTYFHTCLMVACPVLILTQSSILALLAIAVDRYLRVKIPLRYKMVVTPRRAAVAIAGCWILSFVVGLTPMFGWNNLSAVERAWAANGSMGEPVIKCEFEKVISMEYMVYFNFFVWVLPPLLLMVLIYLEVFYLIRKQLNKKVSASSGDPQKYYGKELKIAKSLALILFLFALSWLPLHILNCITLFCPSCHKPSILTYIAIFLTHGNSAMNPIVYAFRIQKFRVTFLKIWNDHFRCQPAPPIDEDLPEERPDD
The assay can be described thus: Displacement of [3H]-CCPA from CHO cells expressing human recombinant Adenosine A1 receptor. The class given is cell-based.

For a further assay, the target named is T4, Adenosine receptor A3 (Homo sapiens, UniProt P0DMS8).
T4 sequence (P0DMS8 whole entry): T1 sequence (whole entry)
The assay can be described thus: [3H]NECA […] binding in CHO cells expressing human Adenosine A3 receptor. The class given is cell-based.

The target in another assay is Adenosine receptor A2a (Homo sapiens, UniProt P29274). The assay can be described thus: [3H]NECA […] binding in CHO cells expressing human recombinant A2A adenosine receptor. The class given is cell-based.
Chain of Adenosine receptor A2a (P29274 whole entry): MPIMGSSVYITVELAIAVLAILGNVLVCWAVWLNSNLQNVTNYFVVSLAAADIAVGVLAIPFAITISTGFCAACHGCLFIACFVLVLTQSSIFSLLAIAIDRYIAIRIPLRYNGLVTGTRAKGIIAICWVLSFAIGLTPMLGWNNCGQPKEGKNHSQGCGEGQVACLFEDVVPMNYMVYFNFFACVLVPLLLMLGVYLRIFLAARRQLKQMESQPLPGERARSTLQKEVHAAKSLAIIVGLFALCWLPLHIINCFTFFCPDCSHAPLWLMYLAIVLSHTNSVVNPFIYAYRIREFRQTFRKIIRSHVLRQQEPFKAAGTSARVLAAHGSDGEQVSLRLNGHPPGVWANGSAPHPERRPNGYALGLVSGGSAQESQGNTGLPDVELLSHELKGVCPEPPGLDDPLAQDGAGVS
The target of assay [3] is T1, Adenosine receptor A3 (Homo sapiens). To be noted: CHO, 1 uM.
Description: Inhibition of [35S]GTP gamma-S binding to CHO cell membranes expressing human A3 receptor at 1 uM
Assay [4] addresses T2, Adenosine receptor A2b. The assay can be described thus: Antagonistic activity against Adenosine A2B receptor. In kind it is functional.
For assay [5], the target named is T1, Adenosine receptor A3 (Homo sapiens). The assay is described as follows: Stimulation of [35S]GTP gamma-S binding in CHO cell membranes expressing human A3 receptor at 983 uM. The class given is functional.

`Nc1ncnc2c1nc(C#Cc1ccccc1)n2[C@@H]1O[C@H](CO)C(O)C1O` (single isomer, unassigned) gave an Agonist effect in assay [1] of 0.2%. The concentration for a half-maximal effect (EC50) on Adenosine receptor A2b [2] is greater than 100 µM. Further, the Ki was greater than 100 µM on Adenosine receptor A1, 0.79 µM on Adenosine receptor A3 and greater than 100 µM on Adenosine receptor A2a.

Consider `CCCCC#Cc1nc2c(N)ncnc2n1[C@@H]1O[C@H](CO)C(O)C1O` (single isomer, unassigned), for which the EC50 at Adenosine receptor A2b [2] was greater than 100 µM. Also, the Ki on Adenosine receptor A1 and on Adenosine receptor A2a was greater than 100 µM in each case.

`CCNC(=O)[C@H]1O[C@@H](n2cnc3c(N)ncnc32)[C@H](O)[C@@H]1O`: the Agonist effect in assay [3] came out at 100%.

In turn, `CCn1c(C#Cc2ccccc2)nc2c(N)ncnc21` showed an IC50 against Adenosine receptor A2b [4] of no less than 100 µM. For the same compound, the Ki at Adenosine receptor A3 stood at 0.086 µM; on Adenosine receptor A2a it was 0.6 µM.

On to `Nc1ncnc2c1nc(/C=C/C(=O)c1ccccc1)n2[C@@H]1O[C@H](CO)[C@@H](O)[C@H]1O`, for which, in assay [5], the Agonist effect is 1.9%. Moreover, the EC50 at Adenosine receptor A2b [2] was greater than 100 µM. In addition, the results for the Ki on Adenosine receptor A1, on Adenosine receptor A3 and on Adenosine receptor A2a were greater than 100 µM, 9.83 µM and 46.6 µM, respectively.
